Test systems include PC-3 prostate; K-562 leukemia; SK-MEL-28 melanoma; OVCAR-3 ovarian; LOX IMVI melanoma; IGROV1 ovarian; T-47D breast; MCF7 breast; NCI-H23 lung; SW-620 colon.
Holding throughout (assay): NCI-60 cell line screen, 48 h

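1) Cells in 96-well plates. 2) Compound, 48 h, 5 concentrations. 3) Linear interpolation between surrounding doses. 4) Unreached endpoint = highest concentration. GI50: concentration for 50% inhibition of growth. Definition used: TGI = concentration required for complete inhibition of growth.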

As for `c1c2c(cc3c1OCO3)-c1ncc3cc4c(cc3c1C2)OCO4`, the GI50 in the assay with PC-3 prostate was 0.581 µM; in the assay on K-562 leukemia, 0.0101 µM; with SK-MEL-28 melanoma, under 0.01 µM; in the assay with OVCAR-3 ovarian, 0.18 µM; in the assay with LOX IMVI melanoma it was under 0.01 µM; in the assay with T-47D breast, over 100 µM. Further, the GI50 with MCF7 breast was under 0.0377 µM; in the assay with NCI-H23 lung it was under 0.0229 µM; in the assay on SW-620 colon it was 0.136 µM. The TGI with PC-3 prostate was over 100 µM; in the assay on K-562 leukemia it was over 64.9 µM; in the assay on SK-MEL-28 melanoma, 41.8 µM; in the assay on OVCAR-3 ovarian, 0.356 µM; in the assay on LOX IMVI melanoma it was 94.1 µM; in the assay on IGROV1 ovarian, over 100 µM. Also, the TGI in the assay on T-47D breast was over 100 µM; in the assay with MCF7 breast, 7.44 µM; in the assay with NCI-H23 lung, over 24.7 µM; in the assay with SW-620 colon, over 100 µM.
Turning to `CCN(CC)C(=O)N[C@@H](CC(C)C)C(=O)NC`, the TGI in the assay with PC-3 prostate, in the assay on K-562 leukemia, in the assay with SK-MEL-28 melanoma, in the assay on OVCAR-3 ovarian, in the assay with LOX IMVI melanoma and in the assay with IGROV1 ovarian was over 100 µM each time. Besides, the TGI with T-47D breast, in the assay with MCF7 breast, in the assay on NCI-H23 lung and with SW-620 colon was over 100 µM throughout.
For `C/C(=C\COP(=O)(O)OP(=O)(O)O)CC/C=C(\C)CNc1c(F)c(F)c(F)c(F)c1F`, the TGI in the assay with PC-3 prostate, with K-562 leukemia, with SK-MEL-28 melanoma, in the assay on OVCAR-3 ovarian, in the assay on LOX IMVI melanoma and with IGROV1 ovarian was over 100 µM throughout. Besides, the TGI in the assay with T-47D breast, with MCF7 breast, in the assay with NCI-H23 lung and in the assay on SW-620 colon was over 100 µM in each case.
For `O=[N+]([O-])c1ccc(CSC2=C(c3ccc(Cl)cc3)S/C(=C3\SC(SCc4ccc([N+](=O)[O-])cc4)=C(c4ccc(Cl)cc4)S3)S2)cc1`, the TGI with PC-3 prostate, in the assay with K-562 leukemia, in the assay on SK-MEL-28 melanoma, in the assay with OVCAR-3 ovarian, with LOX IMVI melanoma and in the assay on IGROV1 ovarian was over 100 µM throughout. The TGI in the assay with T-47D breast, in the assay on MCF7 breast, with NCI-H23 lung and in the assay with SW-620 colon was over 100 µM in each case.
Consider `N#CC1=C(N)OC2=C(CCCc3ccc([N+](=O)[O-])cc32)C1c1ccc(Cl)cc1` (centres undefined), for which the TGI was over 100 µM in the assay on PC-3 prostate; over 100 µM in the assay with K-562 leukemia; over 100 µM in the assay with SK-MEL-28 melanoma; 29.4 µM in the assay on OVCAR-3 ovarian; 44.5 µM in the assay on LOX IMVI melanoma; over 100 µM with IGROV1 ovarian. Also, the TGI in the assay with T-47D breast is 53.9 µM; in the assay with MCF7 breast, 22.6 µM; in the assay on NCI-H23 lung, 47.7 µM; in the assay on SW-620 colon, over 100 µM.
On to `C#C[C@]1(O)CC[C@H]2[C@@H]3CCC4=C/C(=N/OC(=O)c5cccc6cc7ccccc7nc56)CC[C@@H]4[C@H]3CC[C@@]21CC`, for which the TGI with PC-3 prostate, in the assay with K-562 leukemia, in the assay on SK-MEL-28 melanoma, in the assay on OVCAR-3 ovarian, in the assay on LOX IMVI melanoma and in the assay on IGROV1 ovarian was over 100 µM throughout. In addition, the TGI in the assay with T-47D breast, in the assay on MCF7 breast, in the assay with NCI-H23 lung and in the assay with SW-620 colon was over 100 µM in each case.
For `CCOC(=O)c1cccc(N=NNc2cccc(C(=O)OCC)c2)c1`, the TGI in the assay on PC-3 prostate is over 100 µM; with K-562 leukemia, over 100 µM; with SK-MEL-28 melanoma it was over 100 µM; in the assay with OVCAR-3 ovarian it was 93.9 µM; with LOX IMVI melanoma, over 100 µM; with IGROV1 ovarian, over 100 µM. In addition, the TGI in the assay with T-47D breast, with MCF7 breast, in the assay with NCI-H23 lung and in the assay with SW-620 colon was over 100 µM throughout.
`CC(=O)N(C(=O)CC(=O)N1N=C(C)C(N=Nc2cccc([N+](=O)[O-])c2)C1=O)c1ccc(Cl)cc1` (centres undefined): the TGI in the assay with PC-3 prostate, with K-562 leukemia, with SK-MEL-28 melanoma, in the assay with OVCAR-3 ovarian, in the assay with LOX IMVI melanoma and in the assay with IGROV1 ovarian was over 10 µM in each case. Besides, the TGI in the assay on T-47D breast, with MCF7 breast, in the assay with NCI-H23 lung and in the assay with SW-620 colon was over 10 µM throughout.
For the compound `CC[C@@]1(O)C(=O)OCc2c1cc1n(c2=O)Cc2c-1nc1ccc(N)cc1c2CC[Si](C)(C)C`, the TGI is 13.7 µM in the assay on PC-3 prostate; over 38.2 µM with K-562 leukemia; 13.8 µM in the assay with SK-MEL-28 melanoma; 0.797 µM in the assay with OVCAR-3 ovarian; under 0.01 µM with LOX IMVI melanoma; 0.469 µM with IGROV1 ovarian. Besides, the TGI in the assay with T-47D breast is 20.6 µM; with MCF7 breast, 0.39 µM; in the assay on NCI-H23 lung it was under 0.01 µM; in the assay with SW-620 colon, 14.6 µM.
In the case of `Cc1ccc([N+](=O)[O-])cc1S(=O)(=O)Nc1ccc(C2=NN(S(=O)(=O)c3cc([N+](=O)[O-])ccc3C)C(c3ccccc3O)C2)cc1` (centres undefined), the TGI with PC-3 prostate, in the assay on K-562 leukemia, in the assay with SK-MEL-28 melanoma, in the assay on OVCAR-3 ovarian, in the assay on LOX IMVI melanoma and in the assay with IGROV1 ovarian was over 100 µM each time. Further, the TGI in the assay on T-47D breast, in the assay on MCF7 breast, with NCI-H23 lung and in the assay with SW-620 colon was over 100 µM in each case.
For the compound `C=CCCCCCCCCCOC1C=CC(O)C(CO)O1` (centres undefined), the TGI with PC-3 prostate was 86.4 µM; with K-562 leukemia it was 53.3 µM; in the assay on SK-MEL-28 melanoma, over 100 µM; with OVCAR-3 ovarian, over 100 µM; in the assay with LOX IMVI melanoma, over 100 µM; with IGROV1 ovarian, 59.1 µM. For the same compound, the TGI with T-47D breast is over 100 µM; with MCF7 breast, over 100 µM; with NCI-H23 lung it was 97.5 µM; in the assay with SW-620 colon, over 100 µM.
On to `COc1ccc(/C=N/n2c(-c3ccccc3)n[nH]c2=O)c(OC)c1`, for which the TGI in the assay on PC-3 prostate, in the assay on K-562 leukemia, in the assay on SK-MEL-28 melanoma, with OVCAR-3 ovarian, in the assay with LOX IMVI melanoma and in the assay with IGROV1 ovarian was over 100 µM in each case. The TGI with T-47D breast, in the assay on MCF7 breast, in the assay on NCI-H23 lung and in the assay with SW-620 colon was over 100 µM each time.

The record behind these values is PubChem BioAssay (NCI).
